Test [1] has as its system Twitcher mice. Nature of the test: Lifespan of Twitcher mice (Kaplan-Meier survival). The format is in vivo, mouse. From the text: Treated and untreated Twitcher mice as well as untreated controls were used in all experiments. […] The experimental and control animals were randomly assigned to groups for analysis at pre-determined time points (n=3-6 animals per time point) or for life span and behavioral analyses (n=10-14 animals per group). The number of animals per group was based on previous experience with this model and the specific assays as well as power calculations. Quantitative biochemical analyses (GALC activity, psychosine measurements, cytokine/chemokine levels) were performed in duplicate on tissues from 3-6 animals, depending on the assay. Semi-quantitative histomorphometry was performed on at least 3 representative sections per animal from at least 3 animals per group. The photography settings were kept constant for all images. Analysis of variance (ANOVA) was used for group comparisons with Bonferroni correction for pair-wise comparisons. Student's t-test was used to compare the means of two groups. Significant differences in life span were determined by log-rank test. […]
Animals were housed at Washington University School of Medicine. […] Genotypes were determined on postnatal day 1 by PCR as previously described (Sakai et al. 1996 J Neurochem 66:1118-1124; Lin et al., 2005 Molecular Therapy 12:422-430.). […]
Lifespan was recorded as the age of the animal on the date of death or sacrifice. […]

Test [2] has as its system Twitcher mice. Conditions: Twitcher mouse; literature (LeVine 2000; Biswas and LeVine 2002); cited from earlier work.

Molecules are shown by their SMILES. Where two headings read alike, the source gives them in different places.

`N[C@H]1CONC1=O` [L-cycloserine]: the median lifespan in the test on Twitcher mice [1] was approximately 57 days; in the test with Twitcher mice [1] (untreated Twitcher 39.5 d) it was 57 days. Moreover, in the test with Twitcher mice [2], the lifespan is recorded as approximately 57 days.

Source of the values: US20160303205A1, “Combination Therapies for Lysosomal Storage Diseases” (Washington University, priority 2015, published 2016).
